The target in one assay is T1, EGFR (L858R T790M C797S) (Homo sapiens, UniProt P00533, C797S/L858R/T790M).
T1 construct: purchased SignalChem E10-122VG
In words: Biochemical EGFR inhibition assay (Caliper mobility shift), EGFR LRTMCS. The procedure: Reactions proceeded until between 10% to 20% total peptides were phosphorylated at room temperature (25° C.) and were terminated with 35 mM 2,2′,2″,2′″-(ethane-1,2-diyldinitrilo)tetraacetic acid (EDTA). Product was detected using the Caliper mobility shift detection method where the phosphorylated peptide (product) and substrate were electrophoretically separated and measured. Percent activity was plotted against log concentration of compound and points to generate an apparent IC50.

Assay [1] deals with T2, intracellular phosphorylation of EGFR in NCI-H1975 cell line that harbors the EGFR L858R T790M mutations (Homo sapiens, UniProt P00533, L858R/T790M).
T2 construct: NCI-H1975 cell line that harbors the EGFR L858R T790M mutations (ATCC, CRL-5908); host or cells: NCI-H1975
In words: NCI-H1975 pEGFR AlphaLISA assay. The assay is classed as cell-based. To be noted: NCI-H1975 cells (EGFR L858R T790M), p-EGFR (Tyr1068), 4-5 hours incubation; read-out: Ext pEGFR H1975 GMean IC50 (nM) Protocol: @Pharmaron AlphaLISA (Num). Here is the method:
On the next day, the test compounds and DMSO control were added into H1975 cell plate followed by incubation at 37C/5% CO2 for 4-5 hours. […] Then 5 μL of a donor bead mix was added to each well followed by overnight incubation at room temperature in dark. On the next day, the plate was read at a compatible plate reader to obtain pEGFR signal. Percent of pEGFR inhibition was plotted against log concentration of compounds to generate IC50 values.
(In general: In Alpha technology, singlet oxygen from a donor bead excites a nearby acceptor bead.)

Where [2] appears, read: LRTMCS (PH) IC50 (nM) @ 1 mM ATP (Num), EGFR LRTMCS mutant.

Here are results for 13 molecules from US20240382483A1, “HETEROCYCLIC EGFR INHIBITORS FOR USE IN THE TREATMENT OF CANCER” (Blueprint Medicines Corporation, priority 2021, published 2024).

Molecules are shown by their SMILES. Read-outs that look alike come from different tables or passages of the source.

T1 sequence (P00533 25-1210 T790M/C797S/L858R): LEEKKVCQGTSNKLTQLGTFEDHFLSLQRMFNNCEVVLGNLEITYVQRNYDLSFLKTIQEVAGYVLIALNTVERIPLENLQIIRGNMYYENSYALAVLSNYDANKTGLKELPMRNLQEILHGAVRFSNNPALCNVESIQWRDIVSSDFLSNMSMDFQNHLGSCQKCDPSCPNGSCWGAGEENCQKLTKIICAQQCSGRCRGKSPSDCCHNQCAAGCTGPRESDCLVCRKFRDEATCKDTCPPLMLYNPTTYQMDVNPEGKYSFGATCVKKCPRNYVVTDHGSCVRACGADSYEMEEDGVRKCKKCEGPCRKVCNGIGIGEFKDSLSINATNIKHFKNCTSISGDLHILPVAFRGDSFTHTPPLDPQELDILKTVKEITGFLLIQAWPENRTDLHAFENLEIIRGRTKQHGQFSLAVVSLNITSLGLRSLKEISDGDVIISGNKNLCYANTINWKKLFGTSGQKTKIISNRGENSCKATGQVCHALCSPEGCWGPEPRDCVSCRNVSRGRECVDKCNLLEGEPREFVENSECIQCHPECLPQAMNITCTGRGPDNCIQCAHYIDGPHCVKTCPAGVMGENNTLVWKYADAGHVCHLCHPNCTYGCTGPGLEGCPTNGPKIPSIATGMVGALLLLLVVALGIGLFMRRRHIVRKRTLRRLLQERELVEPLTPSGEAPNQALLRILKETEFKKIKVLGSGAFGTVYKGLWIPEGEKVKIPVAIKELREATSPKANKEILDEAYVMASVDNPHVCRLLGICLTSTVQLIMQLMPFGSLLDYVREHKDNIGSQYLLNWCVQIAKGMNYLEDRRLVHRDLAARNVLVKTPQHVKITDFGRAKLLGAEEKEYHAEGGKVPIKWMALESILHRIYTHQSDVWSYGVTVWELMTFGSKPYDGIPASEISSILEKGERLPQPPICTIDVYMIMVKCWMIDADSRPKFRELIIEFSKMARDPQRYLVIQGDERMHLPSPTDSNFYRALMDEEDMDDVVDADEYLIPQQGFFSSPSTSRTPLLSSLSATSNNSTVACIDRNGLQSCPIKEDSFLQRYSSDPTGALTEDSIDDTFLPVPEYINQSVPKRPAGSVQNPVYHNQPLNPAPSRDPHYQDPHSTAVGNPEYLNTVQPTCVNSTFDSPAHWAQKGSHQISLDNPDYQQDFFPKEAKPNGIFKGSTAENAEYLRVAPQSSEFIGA
T2 sequence (P00533 25-1210 T790M/L858R): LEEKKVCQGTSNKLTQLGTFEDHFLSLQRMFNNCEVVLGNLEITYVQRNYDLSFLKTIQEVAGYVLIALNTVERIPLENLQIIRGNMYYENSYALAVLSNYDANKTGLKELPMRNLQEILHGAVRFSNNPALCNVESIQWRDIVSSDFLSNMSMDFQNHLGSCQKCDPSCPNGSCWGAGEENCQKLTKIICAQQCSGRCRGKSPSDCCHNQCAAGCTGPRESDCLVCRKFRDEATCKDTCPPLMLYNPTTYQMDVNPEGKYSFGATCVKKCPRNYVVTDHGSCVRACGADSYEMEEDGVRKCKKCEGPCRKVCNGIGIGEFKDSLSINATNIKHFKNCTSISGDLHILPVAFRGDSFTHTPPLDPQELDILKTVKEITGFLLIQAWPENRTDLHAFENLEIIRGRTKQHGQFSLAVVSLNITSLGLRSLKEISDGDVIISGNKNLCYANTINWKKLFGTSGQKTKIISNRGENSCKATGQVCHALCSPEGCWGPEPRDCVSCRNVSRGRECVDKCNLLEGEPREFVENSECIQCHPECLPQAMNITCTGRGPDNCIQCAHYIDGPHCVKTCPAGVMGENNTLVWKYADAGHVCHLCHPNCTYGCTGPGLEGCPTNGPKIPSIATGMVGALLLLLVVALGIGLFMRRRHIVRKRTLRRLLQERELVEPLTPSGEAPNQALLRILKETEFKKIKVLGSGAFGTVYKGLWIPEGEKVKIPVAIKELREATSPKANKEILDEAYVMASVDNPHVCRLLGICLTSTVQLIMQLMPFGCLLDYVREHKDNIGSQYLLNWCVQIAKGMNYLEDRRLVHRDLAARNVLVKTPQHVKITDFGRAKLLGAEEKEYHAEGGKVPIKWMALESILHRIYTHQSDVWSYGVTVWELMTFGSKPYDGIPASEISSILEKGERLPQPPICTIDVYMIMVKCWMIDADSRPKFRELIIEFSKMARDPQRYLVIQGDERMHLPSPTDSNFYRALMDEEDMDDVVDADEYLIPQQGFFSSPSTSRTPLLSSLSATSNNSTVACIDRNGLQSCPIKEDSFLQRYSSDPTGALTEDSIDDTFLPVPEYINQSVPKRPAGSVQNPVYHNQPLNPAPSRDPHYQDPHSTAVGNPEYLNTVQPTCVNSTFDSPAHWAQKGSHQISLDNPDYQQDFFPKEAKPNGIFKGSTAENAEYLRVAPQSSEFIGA

Usually IC50 stands for the concentration that inhibits the measured activity by half. As for `CC(C)c1cnc(N2C[C@@H](F)[C@H]2C)c2cnc(Nc3ccnc(N4CC[C@@H](O)[C@@](C)(F)C4)n3)cc12` (single isomer, unassigned) [Example 33, (3S,4R)-3-fluoro-1-(4-((8-((2R,3R)-3-fluoro-2-methylazetidin-1-yl)-5-isopropyl-2,7-naphthyridin-3-yl)amino)pyrimidin-2-yl)-3-methylpiperidin-4-ol or (3S,4R)-3-fluoro-1-(4-((8-((2S,3S)-3-fluoro-2-methylazetidin-1-yl)-5-isopropyl-2,7-naphthyridin-3-yl)amino)pyrimidin-2-yl)-3-methylpiperidin-4-ol], the IC50 at EGFR (L858R T790M C797S) (setting [2]) is below 15 nM; in assay [1], below 10 nM.
With `CC(C)c1cnc(N2C[C@@H](F)[C@@H]2C)c2cnc(Nc3ccnc(N4CC[C@@H](O)[C@@](C)(F)C4)n3)cc12` (single isomer, unassigned) [Example 34, (3S,4R)-3-fluoro-1-(4-((8-((2S,3R)-3-fluoro-2-methylazetidin-1-yl)-5-isopropyl-2,7-naphthyridin-3-yl)amino)pyrimidin-2-yl)-3-methylpiperidin-4-ol or (3S,4R)-3-fluoro-1-(4-((8-((2R,3S)-3-fluoro-2-methylazetidin-1-yl)-5-isopropyl-2,7-naphthyridin-3-yl)amino)pyrimidin-2-yl)-3-methylpiperidin-4-ol], the IC50 was below 15 nM on EGFR (L858R T790M C797S) (setting [2]) and above 50 nM in assay [1].
As for `C[C@H](CC#N)c1cnc(N2CC[C@H]2C)c2cnc(Nc3ccnc(N4CC[C@@H](O)[C@@](C)(F)C4)n3)cc12` (single isomer, unassigned) [Example 36, (R)-3-(6-((2-((3S,4R)-3-fluoro-4-hydroxy-3-methylpiperidin-1-yl)pyrimidin-4-yl)amino)-1-((R)-2-methylazetidin-1-yl)-2,7-naphthyridin-4-yl)butanenitrile or (S)-3-(6-((2-((3S,4R)-3-fluoro-4-hydroxy-3-methylpiperidin-1-yl)pyrimidin-4-yl)amino)-1-((R)-2-methylazetidin-1-yl)-2,7-naphthyridin-4-yl)butanenitrile], the IC50 on EGFR (L858R T790M C797S) (setting [2]) was below 15 nM; in assay [1], below 10 nM.
With `C[C@H](CC#N)c1cnc(N2CC[C@H]2C)c2cnc(Nc3ccnc(N4CC[C@@H](O)[C@@](C)(F)C4)n3)cc12` (single isomer, unassigned) [Example 37, (R)-3-(6-((2-((3S,4R)-3-fluoro-4-hydroxy-3-methylpiperidin-1-yl)pyrimidin-4-yl)amino)-1-((R)-2-methylazetidin-1-yl)-2,7-naphthyridin-4-yl)butanenitrile or (S)-3-(6-((2-((3S,4R)-3-fluoro-4-hydroxy-3-methylpiperidin-1-yl)pyrimidin-4-yl)amino)-1-((R)-2-methylazetidin-1-yl)-2,7-naphthyridin-4-yl)butanenitrile], the IC50 at EGFR (L858R T790M C797S) (read-out: LRTMCS (PH) IC50 (nM) @ 1 mM ATP (Num), EGFR LRTMCS mutant) was below 15 nM; in assay [1], 10 to 20 nM.
For the molecule `CO[C@H]1CCN(c2nccc(Nc3cc4c(C(C)C)cnc(N5CCC56CN(C)C6)c4cn3)n2)C[C@@]1(C)F` (single isomer, unassigned) [Example 43, N-(2-((3R,4S)-3-fluoro-4-methoxy-3-methylpiperidin-1-yl)pyrimidin-4-yl)-5-isopropyl-8-(6-methyl-1,6-diazaspiro[3.3]heptan-1-yl)-2,7-naphthyridin-3-amine or N-(2-((3S,4R)-3-fluoro-4-methoxy-3-methylpiperidin-1-yl)pyrimidin-4-yl)-5-isopropyl-8-(6-methyl-1,6-diazaspiro[3.3]heptan-1-yl)-2,7-naphthyridin-3-amine], the IC50 at EGFR (L858R T790M C797S) (setting [2]) is 15 to 20 nM; in assay [1] it was above 50 nM.
For `CC(C)c1cnc(N2C[C@@H](F)[C@H](F)C2)c2cnc(Nc3ccnc(N4CC[C@@H](O)[C@@](C)(F)C4)n3)cc12` (single isomer, unassigned) [Example 60, (3S,4R)-1-(4-((8-((3R,4R)-3,4-difluoropyrrolidin-1-yl)-5-isopropyl-2,7-naphthyridin-3-yl)amino)pyrimidin-2-yl)-3-fluoro-3-methylpiperidin-4-ol or (3S,4R)-1-(4-((8-((3S,4S)-3,4-difluoropyrrolidin-1-yl)-5-isopropyl-2,7-naphthyridin-3-yl)amino)pyrimidin-2-yl)-3-fluoro-3-methylpiperidin-4-ol], in that order: below 15 nM and 10 to 20 nM.
The matching figures for `CC(C)c1cnc(N2CC[C@H]2[C@@H](C)O)c2cnc(Nc3ccnc(N4CC[C@@H](O)[C@@](C)(F)C4)n3)cc12` (single isomer, unassigned) [Example 65, (3S,4R)-3-fluoro-1-(4-((8-((S)-2-((R)-1-hydroxyethyl)azetidin-1-yl)-5-isopropyl-2,7-naphthyridin-3-yl)amino)pyrimidin-2-yl)-3-methylpiperidin-4-ol or (3S,4R)-3-fluoro-1-(4-((8-((S)-2-((S)-1-hydroxyethyl)azetidin-1-yl)-5-isopropyl-2,7-naphthyridin-3-yl)amino)pyrimidin-2-yl)-3-methylpiperidin-4-ol]: below 15 nM and 20 to 30 nM.
The matching figures for `CO[C@@H]1CCN(c2nccc(Nc3cc4c(C(C)C)cnc(N5CC(F)C5)c4cn3)n2)C[C@@H]1O` (single isomer, unassigned) [Example 118, (3S,4R)-1-(4-((8-(3-fluoroazetidin-1-yl)-5-isopropyl-2,7-naphthyridin-3-yl)amino)pyrimidin-2-yl)-4-methoxypiperidin-3-ol or (3R,4S)-1-(4-((8-(3-fluoroazetidin-1-yl)-5-isopropyl-2,7-naphthyridin-3-yl)amino)pyrimidin-2-yl)-4-methoxypiperidin-3-ol]: 20 to 30 nM and above 50 nM.
Consider `CO[C@@H]1CCN(c2nccc(Nc3cc4c(C(C)C)ncc(N5C[C@H](O)[C@H]5C)c4cn3)n2)C[C@@H]1O` (single isomer, unassigned) [Example 119, (3S,4R)-1-(4-((8-((2R,3S)-3-hydroxy-2-methylazetidin-1-yl)-5-isopropyl-2,6-naphthyridin-3-yl)amino)pyrimidin-2-yl)-4-methoxypiperidin-3-ol or (3R,4S)-1-(4-((8-((2R,3S)-3-hydroxy-2-methylazetidin-1-yl)-5-isopropyl-2,6-naphthyridin-3-yl)amino)pyrimidin-2-yl)-4-methoxypiperidin-3-ol], for which the IC50 on EGFR (L858R T790M C797S) (setting [2]) was 20 to 30 nM; in assay [1] it was above 50 nM.
The matching figures for `CO[C@@H]1CCN(c2nccc(Nc3cc4c(C(C)C)cnc(N5CC(C(=O)N(C)C)C5)c4cn3)n2)C[C@@H]1O` (single isomer, unassigned) [Example 120, 1-(6-((2-((3S,4R)-3-hydroxy-4-methoxypiperidin-1-yl)pyrimidin-4-yl)amino)-4-isopropyl-2,7-naphthyridin-1-yl)-N,N-dimethylazetidine-3-carboxamide or 1-(6-((2-((3R,4S)-3-hydroxy-4-methoxypiperidin-1-yl)pyrimidin-4-yl)amino)-4-isopropyl-2,7-naphthyridin-1-yl)-N,N-dimethylazetidine-3-carboxamide]: 20 to 30 nM and 30 to 50 nM.
Take `CO[C@@H]1CCN(c2nccc(Nc3cc4c(C(C)C)ncc(N5CC(C(=O)N(C)C)C5)c4cn3)n2)C[C@@H]1O` (single isomer, unassigned) [Example 121, 1-(7-((2-((3S,4R)-3-hydroxy-4-methoxypiperidin-1-yl)pyrimidin-4-yl)amino)-1-isopropyl-2,6-naphthyridin-4-yl)-N,N-dimethylazetidine-3-carboxamide or 1-(7-((2-((3R,4S)-3-hydroxy-4-methoxypiperidin-1-yl)pyrimidin-4-yl)amino)-1-isopropyl-2,6-naphthyridin-4-yl)-N,N-dimethylazetidine-3-carboxamide]: the values for the IC50 (on EGFR (L858R T790M C797S) (setting [2]); in assay [1]) were 30 to 100 nM and above 50 nM, respectively.
For `CO[C@@H]1CCN(c2nccc(Nc3cc4c(C(C)C)cnc(N5C[C@H](O)[C@H]5C)c4cn3)n2)C[C@@H]1O` (single isomer, unassigned) [Example 122, (3S,4R)-1-(4-((8-((2R,3S)-3-hydroxy-2-methylazetidin-1-yl)-5-isopropyl-2,7-naphthyridin-3-yl)amino)pyrimidin-2-yl)-4-methoxypiperidin-3-ol or (3R,4S)-1-(4-((8-((2R,3S)-3-hydroxy-2-methylazetidin-1-yl)-5-isopropyl-2,7-naphthyridin-3-yl)amino)pyrimidin-2-yl)-4-methoxypiperidin-3-ol], in that order: below 15 nM and 10 to 20 nM.
The matching figures for `CO[C@@H]1CCN(c2nccc(Nc3cc4c(C(C)C)ccc(N5C[C@H](O)[C@H]5C)c4cn3)n2)C[C@@H]1O` (single isomer, unassigned) [Example 123, (3S,4R)-1-(4-((8-((2R,3S)-3-hydroxy-2-methylazetidin-1-yl)-5-isopropylisoquinolin-3-yl)amino)pyrimidin-2-yl)-4-methoxypiperidin-3-ol-ol or (3R,4S)-1-(4-((8-((2R,3S)-3-hydroxy-2-methylazetidin-1-yl)-5-isopropylisoquinolin-3-yl)amino)pyrimidin-2-yl)-4-methoxypiperidin-3-ol]: 15 to 20 nM and above 50 nM.
